Source: patent US4206215A, “Antimicrobial bis-[4-(substituted-amino)-1-pyridinium]alkanes” (Sterling Drug Inc., priority 1977, dated 1980)
Read-outs that look alike come from different tables or passages of the source.

Tests used:
[1] = Acute oral toxicity (ALD50); assay type: in vivo; conditions: mouse, in vivo, po, mice, read-out: 7-Day ALD50
Experimental: (§1) The acute oral toxicity (ALD50) of several representative examples was determined as follows: Groups of 3 young adult male Swiss-Webster strain albino mice were fasted approximately 4 hours before medication and then medicated once orally by stomach tube.

[2] = test system: young adult male Swiss-Webster strain albino mice; experiment: Acute oral toxicity (ALD50); assay type: in vivo
Experimental: as §1

P. mirab. MGH-1 = experiment: In vitro antibacterial activity, MIC (modified Autotiter method); assay type: cell-based, Proteus mirabilis; conditions: 18-20 hours at 37° C.; for MIC: Proteus mirabilis, 20 h, read-out: MIC P. mirab. MGH-1
Summary of the method: (§2)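 Final drug range: 500 → 0.06 mcg./ml., twofold decrements, in inoculated semisynthetic glucose medium. Dilution performed by Autotiter transfer loops in sterile water from a 1,000 mcg./ml. compound solution.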

S. Aureus Smith = experiment: as above; assay type: cell-based, Staphylococcus aureus; conditions: Staphylococcus aureus, 20 h, 18-20 hours at 37° C.; read-out: MIC S. Aureus Smith
Summary of the method: as §2

E. coli Vogel = experiment: as above; assay type: cell-based, Escherichia coli; conditions: 18-20 hours at 37° C.; for MIC: Escherichia coli, 20 h, read-out: MIC E. coli Vogel
Summary of the method: as §2

A. niger 16404 = experiment: In vitro antifungal activity, MIC (modified Autotiter method); assay type: cell-based, Aspergillus niger; conditions: 18-20 hours at 37° C.; for MIC: Aspergillus niger, 16404, 20 h, read-out: MIC A. niger 16404
Summary of the method: as §2

[3] = test system: Streptococcus mutans OMZ-61; experiment: Dental plaque-preventive effectiveness in the presence of sterile human saliva (50%); assay type: cell-based; conditions: for Dental Plaque Preventive Activity in 50% saliva Minimum Effective Conc. (%): 50% sterile human saliva
Experimental: The dental plaque preventive activity of certain of the compounds of the present invention was determined by measuring the ability of these compounds to inhibit the production of dental plaque by Streptococcus mutans OMZ-61 as follows:
A culture medium for the plaque-producing Streptococcus mutans OMZ-61 containing 1.5 g. of BBL beef extract, 5 g. of sodium chloride, 10 g. of dehydrated trypticase, 5 g. of sucrose and sufficient distilled water to give a total volume of 1000 ml. is adjusted to pH 7.0 and sterilized by membrane filtration. The medium is dispensed aseptically in 10-ml. aliquots into 150×16 mm. test tubes and stored at refrigeration temperature until used.
Two concentrations of the compound to be tested are prepared by dissolving 100 mg. of the compound in 1 ml. of distilled water with the aid of sufficient 0.1 N sodium hydroxide, 10% dimethylsulfoxide or 10% N,N-dimethylformamide and diluting the resulting solution to 10 ml. with distilled water. This 1.0% solution and a 1:10 dilution in distilled water (0.1%) are sterilized by membrane filtration before use.
A sterile piece of plaque-free natural tooth enamel or synthetic hydroxylapatite is suspended in each concentration of compound for two 1-minute periods, each followed by a 1-minute air drying period. Each piece is then suspended and agitated for 5 minutes in individual test tubes containing sterile distilled water (rinse). They are then suspended in 10 ml. of liquid beef extract medium to which has been added 0.3 ml. of a 24-hr. anaerobic culture of Streptococcus mutans. The tubes containing the "treated" hydroxylapatite and the Streptococcus mutans are then incubated anaerobically at 37° C. for 24 hours. The same process of two 1-minute soaks in the solution of compound, each followed by 1 minute of air drying and the final 5-minute rinse is repeated before once again suspending the hydroxylapatite in a fresh tube containing 10 ml. of beef extract medium and 0.3 ml. of inoculum. At the end of the second 24-hour period, each piece of hydroxylapatite is rinsed for 1 minute in 3 successive tubes of distilled water. These are then suspended for 1 minute in a solution of F, D & C Red No. 3 dye. This staining procedure is used in order to identify more easily the development of plaque after the 48-hour period of exposure to the plaque-producing organism. The staining period is followed by another 10-second rinse to remove excess dye. Any plaque formation stains a brilliant pink. […] Active compounds are tested at successively lower doses in order to determine the minimum effective concentration. On some occasions, the interference of plaque production is caused by the inhibition of growth of the organism in the culture medium because the compound has been leached from the hydroxylapatite to produce an antibacterial level in the medium. When this occurs, the compound is tested at lower concentrations until the growth of the organism in the surrounding medium is equal to that in the nonmedicated control culture. Plaque may or may not be formed at these lower concentrations.
Dental plaque-preventive effectiveness in the presence of sterile human saliva (50%) was determined for representative examples.

T. menta. 9129 = experiment: In vitro antifungal activity, MIC (modified Autotiter method); assay type: cell-based, Trichophyton mentagrophytes; conditions: 18-20 hours at 37° C.; for MIC: Trichophyton mentagrophytes, 20 h, read-out: MIC T. menta. 9129
Summary of the method: as §2

C. albicans 10231 = experiment: as above; assay type: cell-based, Candida albicans; conditions: Candida albicans, 10231, 20 h, 18-20 hours at 37° C.; read-out: MIC C. albicans 10231
Summary of the method: as §2

C. albicans Wisc. = experiment: as above; assay type: cell-based, Candida albicans; conditions: 18-20 hours at 37° C.; for MIC: Candida albicans, 20 h, read-out: MIC C. albicans Wisc.
Summary of the method: as §2

S. Aureus ATCC 6538 = experiment: Effect of serum on bacteriostatic activity (serial tube dilution test); assay type: cell-based, Staphyloccocus aureus; conditions: for Fold Increase in MIC S. Aureus ATCC 6538: 40% vs 0% horse serum; for MIC: Staphylococcus aureus, ATCC6538
[4] = suspension in 1% gum tragacanth
[5] = 125 mg/kg oral, aqueous solution
[6] = 125 mg/kg oral, suspension in 1% G.T.
[7] = 250 mg/kg oral, aqueous solution
[8] = 250 mg/kg oral, suspension in 1% G.T.
[9] = 500 mg/kg oral, aqueous solution
[10] = 500 mg/kg oral, suspension in 1% G.T.
[11] = 1000 mg/kg oral, suspension in 1% G.T.
[12] = 40% heat inactivated horse serum, read-out: MIC S. Aureus ATCC 6538 40% Serum
[13] = read-out: MIC S. Aureus ATCC 6538 0% Serum

CCCCCCCNc1cc[n+](CCCCCCCCCCCC[n+]2ccc(NCCCCCCC)cc2)cc1 [Example 3, 1,12-bis-[4-(heptylamino)-1-pyridinium]dodecane dibromide]
LD50 at 168 h ([1]; aqueous solution): 315 mg/kg
LD50 at 168 h [1, 4]: 1000 mg/kg
Mortality 7 Days [2, 5]: 0/3
Mortality 24 Hrs [2, 5]: 0/3
Mortality 7 Days [2, 6]: 0/3
Mortality 24 Hrs [2, 6]: 0/3
Mortality 7 Days [2, 7]: 1/3
Mortality 24 Hrs [2, 7]: 1/3
Mortality 7 Days [2, 8]: 0/3
Mortality 24 Hrs [2, 8]: 0/3
Mortality 7 Days [2, 9]: 3/3
Mortality 24 Hrs [2, 9]: 2/3
Mortality 7 Days [2, 10]: 1/3
Mortality 24 Hrs [2, 10]: 0/3
Mortality 7 Days [2, 11]: 1/3
Mortality 24 Hrs [2, 11]: 1/3
MIC (P. mirab. MGH-1): 3.13 µg/mL
MIC (S. Aureus Smith): 0.39 µg/mL
MIC E. coli Vogel (E. coli Vogel): 1.56 µg/mL
MIC A. niger 16404 (A. niger 16404): 3.13 µg/mL
Dental Plaque Preventive Activity in 50% saliva Minimum Effective Conc. (%) [3]: 0.1%
MIC T. menta. 9129 (T. menta. 9129): 1.56 µg/mL
MIC (C. albicans 10231): 1.56 µg/mL
MIC (C. albicans Wisc.): 3.13 µg/mL
Fold Increase in MIC S. Aureus ATCC 6538 (S. Aureus ATCC 6538): 8 fold
MIC (S. Aureus ATCC 6538; [12]): 3.12 µg/mL
MIC (S. Aureus ATCC 6538; [13]): 0.39 µg/mL

CCCCCCCNc1cc[n+](CCCCCCCCC[n+]2ccc(NCCCCCCC)cc2)cc1 [Example 24, 1,9-bis-[4-(heptylamino)-1-pyridinium]nonane dibromide]
LD50 at 168 h [1, 4]: > 1000 mg/kg
Mortality 7 Days [2, 6]: 0/3
Mortality 24 Hrs [2, 6]: 0/3
Mortality 7 Days [2, 8]: 0/3
Mortality 24 Hrs [2, 8]: 0/3
Mortality 7 Days [2, 10]: 1/3
Mortality 24 Hrs [2, 10]: 0/3
Mortality 7 Days [2, 11]: 0/3
Mortality 24 Hrs [2, 11]: 0/3
MIC P. mirab. MGH-1 (P. mirab. MGH-1): 15.6 µg/mL
MIC (S. Aureus Smith): 0.25 µg/mL
MIC (E. coli Vogel): 1 µg/mL
MIC (A. niger 16404): 3.9 µg/mL
Dental Plaque Preventive Activity in 50% saliva Minimum Effective Conc. (%) [3]: Ca. 0.005%
MIC (T. menta. 9129): 0.5 µg/mL
MIC (C. albicans 10231): 1 µg/mL
MIC (C. albicans Wisc.): 1 µg/mL
Fold Increase in MIC S. Aureus ATCC 6538 (S. Aureus ATCC 6538): 16 fold
MIC (S. Aureus ATCC 6538; [12]): 1.95 µg/mL
MIC (S. Aureus ATCC 6538; [13]): 0.125 µg/mL

CCCCC(CC)CNc1cc[n+](CCCCCCCCCC[n+]2ccc(NCC(CC)CCCC)cc2)cc1 (stereo not shown) [Example 58, 1,10-bis-[4-(2-ethylhexylamino)-1-pyridinium]decane dibromide]
LD50 at 168 h [1, 4]: > 1000 mg/kg
Mortality 7 Days [2, 6]: 0/3
Mortality 24 Hrs [2, 6]: 0/3
Mortality 7 Days [2, 8]: 0/3
Mortality 24 Hrs [2, 8]: 0/3
Mortality 7 Days [2, 10]: 0/3
Mortality 24 Hrs [2, 10]: 0/3
Mortality 7 Days [2, 11]: 0/3
Mortality 24 Hrs [2, 11]: 0/3
MIC (P. mirab. MGH-1): 12.1 µg/mL
MIC (S. Aureus Smith): 0.24 µg/mL
MIC (E. coli Vogel): 1.5 µg/mL
MIC A. niger 16404 (A. niger 16404): 6.0 µg/mL
Dental Plaque Preventive Activity in 50% saliva Minimum Effective Conc. (%) [3]: Ca. 0.005%
MIC (T. menta. 9129): 0.76 µg/mL
MIC (C. albicans 10231): 3 µg/mL
MIC (C. albicans Wisc.): 1.5 µg/mL
Fold Increase in MIC S. Aureus ATCC 6538 (S. Aureus ATCC 6538): 16 fold
MIC (S. Aureus ATCC 6538; [12]): 3.9 µg/mL
MIC (S. Aureus ATCC 6538; [13]): 0.25 µg/mL

CCCCCCCCNc1cc[n+](CCCCCCCC[n+]2ccc(NCCCCCCCC)cc2)cc1 [Example 11, 1,8-bis-[4-(octylamino)-1-pyridinium]octane dibromide]
LD50 at 168 h [1, 4]: > 1000 mg/kg
Mortality 7 Days [2, 6]: 0/3
Mortality 24 Hrs [2, 6]: 0/3
Mortality 7 Days [2, 8]: 0/3
Mortality 24 Hrs [2, 8]: 0/3
Mortality 7 Days [2, 10]: 1/3
Mortality 24 Hrs [2, 10]: 0/3
Mortality 7 Days [2, 11]: 0/3
Mortality 24 Hrs [2, 11]: 0/3
MIC (P. mirab. MGH-1): 7.8 µg/mL
MIC (S. Aureus Smith): 0.25 µg/mL
MIC (E. coli Vogel): 1 µg/mL
MIC (A. niger 16404): 3.9 µg/mL
Dental Plaque Preventive Activity in 50% saliva Minimum Effective Conc. (%) [3]: 0.05%
MIC (T. menta. 9129): 0.5 µg/mL
MIC (C. albicans 10231): 1 µg/mL
MIC (C. albicans Wisc.): 1 µg/mL
Fold Increase in MIC S. Aureus ATCC 6538 (S. Aureus ATCC 6538): 16 fold
MIC (S. Aureus ATCC 6538; [12]): 7.8 µg/mL
MIC (S. Aureus ATCC 6538; [13]): 0.5 µg/mL

CCCCCCNc1cc[n+](CCCCCCCCCCCCCC[n+]2ccc(NCCCCCC)cc2)cc1 [Example 5C, 1,14-bis-[4-(hexylamino)-1-pyridinium]tetradecane dibromide]
LD50 at 168 h [1, 4]: > 1000 mg/kg
Mortality 7 Days [2, 6]: 0/3
Mortality 24 Hrs [2, 6]: 0/3
Mortality 7 Days [2, 8]: 0/3
Mortality 24 Hrs [2, 8]: 0/3
Mortality 7 Days [2, 10]: 0/3
Mortality 24 Hrs [2, 10]: 0/3
Mortality 7 Days [2, 11]: 1/3
Mortality 24 Hrs [2, 11]: 1/3
MIC P. mirab. MGH-1 (P. mirab. MGH-1; listed as SC): 1.5 µg/mL
MIC (S. Aureus Smith): 0.38 µg/mL
MIC (E. coli Vogel): 0.76 µg/mL
MIC (A. niger 16404): 3 µg/mL
Plaque formation in 50% saliva plaque test (footnote 1) ([3]; 0.005%, 50% saliva): plaque formed
Bacterial growth in 50% saliva plaque test (footnote 1) ([3]; 0.05% concentration, 50% saliva): No bacterial growth
Dental Plaque Preventive Activity in 50% saliva Minimum Effective Conc. (%) [3]: 0.05%
MIC (T. menta. 9129): 0.76 µg/mL
MIC (C. albicans 10231): 1.5 µg/mL
MIC C. albicans Wisc. (C. albicans Wisc.; listed as SC): 0.76 µg/mL
Fold Increase in MIC S. Aureus ATCC 6538 (S. Aureus ATCC 6538): 32 fold
MIC (S. Aureus ATCC 6538; [12]): 3.12 µg/mL
MIC (S. Aureus ATCC 6538; [13]): 0.1 µg/mL
